Results published in patent US12049450B2, “Pyridyloxy-carboxylate derivative and preparation method therefor, herbicidal composition, and use” (Qingdao Kingagroot Chemical Compound Co., Ltd., priority 2018, dated 2024).

Legend:
Assay type in all cases: in vivo
Abutilon theophrasti = experiment: Post-emergence test experiment (greenhouse pot, spray at 2-3 leaf stage); details: 1000 g/ha; post-emergence spray at 2-3 leaf stage; assessed after 3 weeks; fresh weight inhibition rate
In short: (§1)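 Weed seeds sown in soil-filled pots in greenhouse, sprayed at 2-3 leaf stage (2 weeks after sowing) with compound in acetone/tween-80 plus methyl oleate emulsible concentrate (1.5 L/ha) diluted in water. Fresh-weight growth inhibition scored after 3 weeks on 0-5 scale (5: >85%, 0: <5%).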

Monochoria vaginalis = experiment: as above; details: 1000 g/ha; post-emergence spray at 2-3 leaf stage; assessed after 3 weeks; fresh weight inhibition rate
In short: as §1

Galium spurium = experiment: as above; details: 1000 g/ha; post-emergence spray at 2-3 leaf stage; assessed after 3 weeks; fresh weight inhibition rate
In short: as §1

Soybean = experiment: Spray drift test, application by unmanned gyroplane, soybean field at 10 meters; details: 600 g/ha, gyroplane at 1 m, gentle breeze
Experimental: Broadleaf crops are very sensitive to hormonal herbicides, therefore crop injuries are more likely to occur in case of spray drifting. Tests were conducted in gentle breeze for the compounds of the present invention. The formulation of the compounds of the present invention was applied by DJI unmanned gyroplane with application height of 1 m and water volume of 20 kg/ha. The use rate was 600 g/ha. The active ingredient was dissolved by acetone and diluted to aqueous solution of Tween 80. There's a soybean field at 10 meters from the application area and the height of soybean plants were about 15 cm at the application time.

Digitaria sanguinalis = experiment: Post-emergence test experiment (greenhouse pot, spray at 2-3 leaf stage); details: 1000 g/ha; post-emergence spray at 2-3 leaf stage; assessed after 3 weeks; fresh weight inhibition rate
In short: as §1

Echinochloa crusgalli = experiment: as above; details: 1000 g/ha; post-emergence spray at 2-3 leaf stage; assessed after 3 weeks; fresh weight inhibition rate
In short: as §1

Row | SMILES | Activity level (growth inhibition rate) Abutilon theophrasti (Abutilon theophrasti) | Activity level (growth inhibition rate) Monochoria Vaginalis (Monochoria vaginalis) | Activity level (growth inhibition rate) Galium spurium (Galium spurium) | Soybean, injury level by spray drift (Soybean) | Activity level (growth inhibition rate) Digitaria sanguinalis (Digitaria sanguinalis) | Activity level (growth inhibition rate) Echinochloa crusgalli (Echinochloa crusgalli)
1 | CC(C)C(Oc1nc(F)c(Cl)c(N)c1Cl)C(=O)OCc1ccccc1 (stereo not shown) [Compound 27] | 5 (Level 5: the growth inhibition rate is greater than 85%) | 5 (Level 5: the growth inhibition rate is greater than 85%) | 5 (Level 5: the growth inhibition rate is greater than 85%) | 0 (Level 0: the growth inhibition rate is less than 5%) |  | 
2 | CC(Oc1nc(F)c(Cl)c(N)c1Cl)C(=O)SCc1ccccc1C#N (stereo not shown) [Compound 224] | 5 (Level 5: the growth inhibition rate is greater than 85%) | 5 (Level 5: the growth inhibition rate is greater than 85%) | 5 (Level 5: the growth inhibition rate is greater than 85%) |  | 5 (Level 5: the growth inhibition rate is greater than 85%) | 5 (Level 5: the growth inhibition rate is greater than 85%)
3 | CC(Oc1nc(F)c(Cl)c(N)c1Cl)C(=O)SCc1ccc(C#N)cc1 (stereo not shown) [Compound 225] | 5 (Level 5: the growth inhibition rate is greater than 85%) | 5 (Level 5: the growth inhibition rate is greater than 85%) | 5 (Level 5: the growth inhibition rate is greater than 85%) |  | 5 (Level 5: the growth inhibition rate is greater than 85%) | 5 (Level 5: the growth inhibition rate is greater than 85%)
4 | CC(Oc1nc(F)c(Cl)c(N)c1Cl)C(=O)SCc1cccc(C#N)c1 (stereo not shown) [Compound 226] | 5 (Level 5: the growth inhibition rate is greater than 85%) | 5 (Level 5: the growth inhibition rate is greater than 85%) | 5 (Level 5: the growth inhibition rate is greater than 85%) |  | 5 (Level 5: the growth inhibition rate is greater than 85%) | 5 (Level 5: the growth inhibition rate is greater than 85%)
5 | CC(Oc1nc(F)c(Cl)c(N)c1Cl)C(=O)SCc1ccccc1Cl (stereo not shown) [Compound 227] | 5 (Level 5: the growth inhibition rate is greater than 85%) | 5 (Level 5: the growth inhibition rate is greater than 85%) | 5 (Level 5: the growth inhibition rate is greater than 85%) |  | 5 (Level 5: the growth inhibition rate is greater than 85%) | 5 (Level 5: the growth inhibition rate is greater than 85%)
6 | CC(Oc1nc(F)c(Cl)c(N)c1Cl)C(=O)SCc1ccc(Cl)cc1 (stereo not shown) [Compound 228] | 5 (Level 5: the growth inhibition rate is greater than 85%) | 5 (Level 5: the growth inhibition rate is greater than 85%) | 5 (Level 5: the growth inhibition rate is greater than 85%) |  | 5 (Level 5: the growth inhibition rate is greater than 85%) | 5 (Level 5: the growth inhibition rate is greater than 85%)
7 | CC(Oc1nc(F)c(Cl)c(N)c1Cl)C(=O)SCc1ccccc1Br (stereo not shown) [Compound 229] | 5 (Level 5: the growth inhibition rate is greater than 85%) | 5 (Level 5: the growth inhibition rate is greater than 85%) | 5 (Level 5: the growth inhibition rate is greater than 85%) |  | 5 (Level 5: the growth inhibition rate is greater than 85%) | 5 (Level 5: the growth inhibition rate is greater than 85%)
8 | CC(Oc1nc(F)c(Cl)c(N)c1Cl)C(=O)SCc1cccc(Br)c1 (stereo not shown) [Compound 230] | 5 (Level 5: the growth inhibition rate is greater than 85%) | 5 (Level 5: the growth inhibition rate is greater than 85%) | 5 (Level 5: the growth inhibition rate is greater than 85%) |  | 5 (Level 5: the growth inhibition rate is greater than 85%) | 5 (Level 5: the growth inhibition rate is greater than 85%)
9 | CC(Oc1nc(F)c(Cl)c(N)c1Cl)C(=O)SCc1ccc(Br)cc1 (stereo not shown) [Compound 231] | 5 (Level 5: the growth inhibition rate is greater than 85%) | 5 (Level 5: the growth inhibition rate is greater than 85%) | 5 (Level 5: the growth inhibition rate is greater than 85%) |  | 5 (Level 5: the growth inhibition rate is greater than 85%) | 5 (Level 5: the growth inhibition rate is greater than 85%)
10 | CC(Oc1nc(F)c(Cl)c(N)c1Cl)C(=O)SCc1ccccc1C(F)(F)F (stereo not shown) [Compound 232] | 5 (Level 5: the growth inhibition rate is greater than 85%) | 5 (Level 5: the growth inhibition rate is greater than 85%) | 5 (Level 5: the growth inhibition rate is greater than 85%) |  | 5 (Level 5: the growth inhibition rate is greater than 85%) | 5 (Level 5: the growth inhibition rate is greater than 85%)
11 | CC(Oc1nc(F)c(Cl)c(N)c1Cl)C(=O)SCc1cccc(C(F)(F)F)c1 (stereo not shown) [Compound 233] | 5 (Level 5: the growth inhibition rate is greater than 85%) | 5 (Level 5: the growth inhibition rate is greater than 85%) | 5 (Level 5: the growth inhibition rate is greater than 85%) |  | 5 (Level 5: the growth inhibition rate is greater than 85%) | 5 (Level 5: the growth inhibition rate is greater than 85%)
12 | CC(Oc1nc(F)c(Cl)c(N)c1Cl)C(=O)SCc1ccc(C(F)(F)F)cc1 (stereo not shown) [Compound 234] | 5 (Level 5: the growth inhibition rate is greater than 85%) | 5 (Level 5: the growth inhibition rate is greater than 85%) | 5 (Level 5: the growth inhibition rate is greater than 85%) |  | 5 (Level 5: the growth inhibition rate is greater than 85%) | 5 (Level 5: the growth inhibition rate is greater than 85%)
13 | CC(Oc1nc(F)c(Cl)c(N)c1Cl)C(=O)SCc1ccccn1 (stereo not shown) [Compound 235] | 5 (Level 5: the growth inhibition rate is greater than 85%) | 5 (Level 5: the growth inhibition rate is greater than 85%) | 5 (Level 5: the growth inhibition rate is greater than 85%) |  | 5 (Level 5: the growth inhibition rate is greater than 85%) | 5 (Level 5: the growth inhibition rate is greater than 85%)
14 | CC(Oc1nc(F)c(Cl)c(N)c1Cl)C(=O)SCc1ccncc1 (stereo not shown) [Compound 236] | 5 (Level 5: the growth inhibition rate is greater than 85%) | 5 (Level 5: the growth inhibition rate is greater than 85%) | 5 (Level 5: the growth inhibition rate is greater than 85%) |  | 5 (Level 5: the growth inhibition rate is greater than 85%) | 5 (Level 5: the growth inhibition rate is greater than 85%)
15 | CC(Oc1nc(F)c(Cl)c(N)c1Cl)C(=O)SCc1cccnc1 (stereo not shown) [Compound 237] | 5 (Level 5: the growth inhibition rate is greater than 85%) | 5 (Level 5: the growth inhibition rate is greater than 85%) | 5 (Level 5: the growth inhibition rate is greater than 85%) |  | 5 (Level 5: the growth inhibition rate is greater than 85%) | 5 (Level 5: the growth inhibition rate is greater than 85%)
16 | CC(Oc1nc(F)c(Cl)c(NCc2ccc(C(F)(F)F)o2)c1Cl)C(=O)SCc1ccccc1 (stereo not shown) [Compound 239] | 5 (Level 5: the growth inhibition rate is greater than 85%) | 5 (Level 5: the growth inhibition rate is greater than 85%) | 5 (Level 5: the growth inhibition rate is greater than 85%) |  | 5 (Level 5: the growth inhibition rate is greater than 85%) | 5 (Level 5: the growth inhibition rate is greater than 85%)
